From patent publication US8268814B2, “Substituted sulfonamide compounds” (Gruenenthal GmbH, priority 2008, dated 2012)

What was measured:
[1] = molecular target: T1, human B1R receptor (hB1R) (Homo sapiens, UniProt P46663); experiment: Functional FLIPR Ca2+ assay on the bradykinin 1 receptor, human (hB1R CHO K1 cells); assay type: cell-based; conditions: test substance 10 μM; CHO K1 cells transfected with human B1R gene; agonist Lys-Des-Arg9-bradykinin at EC80; % inhibition compared with maximum achievable inhibition; read-out: B1R antagonism, human (10 μM] % inhibition
T1 construct: expressed in transfected cells; host or cells: CHO K1 cells (Chinese hamster ovary), stably transfected
T1 sequence (P46663 1-353): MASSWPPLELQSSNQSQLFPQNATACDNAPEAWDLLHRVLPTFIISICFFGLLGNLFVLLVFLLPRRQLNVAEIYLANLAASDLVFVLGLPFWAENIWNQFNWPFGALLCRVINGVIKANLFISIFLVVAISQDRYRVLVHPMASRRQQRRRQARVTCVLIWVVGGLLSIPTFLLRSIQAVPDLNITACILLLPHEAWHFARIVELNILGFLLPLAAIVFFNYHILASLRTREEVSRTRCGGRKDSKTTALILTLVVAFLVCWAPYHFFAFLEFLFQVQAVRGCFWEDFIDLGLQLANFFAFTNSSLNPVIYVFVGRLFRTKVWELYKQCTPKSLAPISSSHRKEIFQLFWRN
Method: (§1) The agonistic or antagonistic action of substances can be quantified on the bradykinin 1 receptor (B1R) of the human and rat species with ectopically expressing cell lines (CHO K1 cells) and with the aid of a Ca^2+-sensitive dyestuff (Fluo-4) in a fluorescent imaging plate reader (FLIPR). The figure in % activation is based on the Ca^2+ signal after addition of Lys-Des-Arg^9-bradykinin (0.5 nM) or Des-Arg^9-bradykinin (100 nM). Antagonists lead to a suppression of the Ca^2+ inflow after addition of the agonist. % inhibition compared with the maximum achievable inhibition is stated.
(§2) The agonistic or antagonistic action of substances can be determined on the bradykinin 1 receptor (B1R) of the human and rat species with the following assay. In accordance with this assay, the Ca^2+ inflow through the channel is quantified with the aid of a Ca^2+-sensitive dyestuff (type Fluo-4, Molecular Probes Europe BV, Leiden, Holland) in a fluorescent imaging plate reader (FLIPR, Molecular Devices, Sunnyvale, USA).
(§3) Chinese hamster ovary cells (CHO K1 cells) transfected stably with the human B1R gene (hB1R cells) or the B1R gene of the rat (rB1R cells) are used. For functional studies, these cells are plated out on black 96-well plates with a clear base (BD Biosciences, Heidelberg, Germany or Greiner, Frickenhausen, Germany) in a density of 20,000-35,000 cells/well. The cells are left overnight at 37° C. and 5% CO2 in culture medium (hB1R cells: Nutrient Mixture Ham's F12, Gibco Invitrogen GmbH, Karlsruhe, Germany or DMEM, Sigma-Aldrich, Taufkirchen, Germany; rB1R cells: D-MEM/F12, Gibco Invitrogen GmbH, Karlsruhe, Germany) with 10 vol. % FBS (foetal bovine serum, Gibco Invitrogen GmbH, Karlsruhe, Germany or PAN Biotech GmbH, Aidenbach, Germany). On the following day, the cells are loaded for 60 min at 37° C. with 2.13 μM Fluo-4 (Molecular Probes Europe BV, Leiden, Holland) in HBSS buffer (Hank's buffered saline solution, Gibco Invitrogen GmbH, Karlsruhe, Germany) with 2.5 mM probenecid (Sigma-Aldrich, Taufkirchen, Germany) and 10 mM HEPES (Sigma-Aldrich, Taufkirchen, Germany). The plates are then washed 2× with HBSS buffer, and HBSS buffer which additionally contains 0.1% BSA (bovine serum albumin; Sigma-Aldrich, Taufkirchen, Germany), 5.6 mM glucose and 0.05% gelatine (Merck KgaA, Darmstadt, Germany) is added. After a further incubation of 20 minutes at room temperature, the plates are inserted into the FLIPR for the Ca^2+ measurement.
(§4) Alternatively, the plates are washed with buffer A (15 mM HEPES, 80 mM NaCl, 5 mM KCl, 1.2 mM CaCl2, 0.7 mM MgSO4, 2 g/l glucose, 2.5 mM probenecid), buffer A is added and the plates are loaded with 2.5 μM Fluo-4 and 0.025% Pluronic F127 (Sigma-Aldrich, Taufkirchen, Germany). Thereafter, the cells are washed 2× with buffer A and incubated for 30 minutes with buffer A, which additionally contains 0.05% BSA and 0.05% gelatine, at room temperature and thereafter inserted into the FLIPR for the Ca^2+ measurement. The Ca^2+-dependent fluorescence is measured here before and after addition of substances (λex=488 nm, λem=540 nm). Quantification is by measurement of the highest fluorescence intensity (FC, fluorescence counts) over time.
(§5) The FLIPR protocol consists of 2 additions of substance. Test substances (10 μM) are first pipetted on to the cells and the Ca^2+ inflow is compared with the control (hB1R: Lys-Des-Arg^9-bradykinin >=50 nM; rB1R: Des-Arg^9-bradykinin 10 μM). This gives the figure in % activation based on the Ca^2+ signal after addition of Lys-Des-Arg^9-bradykinin (>=50 nM) or Des-Arg^9-bradykinin (10 μM). After incubation for 10-20 minutes, Lys-Des-Arg^9-bradykinin (hB1R) or Des-Arg^9-bradykinin (rB1R) in the concentration of the EC80 is applied and the inflow of Ca^2+ is likewise determined. Antagonists lead to a suppression of the Ca^2+ inflow. % inhibition compared with the maximum achievable inhibition is calculated. In order to determine the IC50 value, the substances are added in various concentrations. […]

[2] = molecular target: T2, B1R receptor of the rat (rB1R) (Rattus norvegicus, UniProt P97583); experiment: Functional FLIPR Ca2+ assay on the bradykinin 1 receptor, rat (rB1R CHO K1 cells); assay type: cell-based; conditions: test substance 10 μM; CHO K1 cells transfected with rat B1R gene; agonist Des-Arg9-bradykinin at EC80; % inhibition compared with maximum achievable inhibition; read-out: B1R antagonism, rat [10 μM] % inhibition
T2 construct: expressed in transfected cells; host or cells: CHO K1 cells (Chinese hamster ovary), stably transfected
T2 sequence (P97583 1-337): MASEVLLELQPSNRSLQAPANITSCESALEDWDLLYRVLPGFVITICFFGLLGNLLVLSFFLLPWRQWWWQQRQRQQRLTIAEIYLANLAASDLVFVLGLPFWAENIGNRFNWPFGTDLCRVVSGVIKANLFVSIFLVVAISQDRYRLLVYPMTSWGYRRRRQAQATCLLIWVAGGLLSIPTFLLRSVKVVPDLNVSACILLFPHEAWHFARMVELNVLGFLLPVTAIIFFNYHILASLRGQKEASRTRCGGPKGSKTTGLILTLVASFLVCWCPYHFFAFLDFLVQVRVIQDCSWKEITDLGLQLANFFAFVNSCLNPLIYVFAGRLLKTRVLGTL
Method: as §1, §2, §3, §4, §5

| inhibition at 10 µM [1] | inhibition at 10 µM [2] | Compound |
| --- | --- | --- |
| 98% | 99% | COc1cc(C)c(S(=O)(=O)N2CCCCC2CCC(=O)N2CCc3sc(CN4CCN(C)CC4)cc3C2)c(C)c1 (centres unmarked) [Example 45, 3-(1-(4-methoxy-2,6-dimethylphenylsulfonyl)piperidin-2-yl)-1-(2-((4-methylpiperazin-1-yl)methyl)-6,7-dihydrothieno[3,2-c]pyridin-5(4H)-yl)propan-1-one] |
| 100% | 102% | CN1CCN(Cc2cc3c(s2)CCN(C(=O)CC(NS(=O)(=O)c2ccc4ccccc4c2)c2ccccc2)C3)CC1 (racemic) [Example 46, N-(3-(2-((4-methylpiperazin-1-yl)methyl)-6,7-dihydrothieno[3,2-c]pyridin-5(4H)-yl)-3-oxo-1-phenylpropyl)naphthalene-2-sulfonamide] |
| 83% | 102% | O=C(C[C@@H](NS(=O)(=O)c1ccc2ccccc2c1)c1ccccc1)N1CCc2onc(-c3ccncc3)c2C1 [Example 03, I—N-(3-oxo-1-phenyl-3-(3-(pyridin-4-yl)-6,7-dihydroisoxazolo[4,5-c]pyridin-5(4H)-yl)propyl)naphthalene-2-sulfonamide] |
| 100% | 105% | Cc1cccc(Cl)c1S(=O)(=O)N(CCOCC(=O)N1CCc2sc(CN3CCC3)cc2C1)C1CC1 [Example 56, N-[2-[2-[2-(Azetidin-1-yl-methyl)-4,5,6,7-tetrahydro-thieno[3,2-c]pyridin-5-yl]-2-oxo-ethoxy]-ethyl]-2-chloro-N-cyclopropyl-6-methyl-benzenesulfonic acid amide] |
| 75% | 102% | COc1cc(C)c(S(=O)(=O)N2c3ccccc3CC[C@H]2COCC(=O)N2CCc3onc(-c4ccncc4)c3C2)c(C)c1 [Example 125, 2-[[(2S)-1-[(4-Methoxy-2,6-dimethyl-phenyl)sulfonyl]-1,2,3,4-tetrahydro-quinolin-2-yl]-methoxy]-1-(3-pyridin-4-yl-4,5,6,7-tetrahydro-isoxazolo[4,5-c]pyridin-5-yl)-ethanone] |
| 100% | 100% | COc1cc(C)c(S(=O)(=O)N2CCCCC2COCC(=O)N2CCc3sccc3C2c2ccncc2)c(C)c1 (centres unmarked) [Example 36, 2-((1-(4-methoxy-2,6-dimethylphenylsulfonyl)piperidin-2-yl)methoxy)-1-(4-(pyridin-4-yl)-6,7-dihydrothieno[3,2-c]pyridin-5(4H)-yl)ethanone] |
| 100% | 103% | COc1cc(C)c(S(=O)(=O)N2CCCC[C@H]2COCC(=O)N2CCc3nc(CN4CCCCC4)sc3C2)c(C)c1 [Example 58, 2-[[(2S)-1-[(4-Methoxy-2,6-dimethyl-phenyl)sulfonyl]-piperidin-2-yl]-methoxy]-1-[2-(piperidin-1-yl-methyl)-4,5,6,7-tetrahydro-thiazolo[5,4-c]pyridin-5-yl]-ethanone] |
| 69% | 98% | COc1cc(C)c(S(=O)(=O)N2CCCCC2COCC(=O)N2CCc3sccc3C2c2ccccc2)c(C)c1 (centres unmarked) [Example 15, 2-((1-(4-methoxy-2,6-dimethylphenylsulfonyl)piperidin-2-yl)methoxy)-1-(4-phenyl-6,7-dihydrothieno[3,2-c]pyridin-5(4H)-yl)ethanone] |
| 100% | 106% | Cc1cccc(Cl)c1S(=O)(=O)N(CCOCC(=O)N1CCc2sc(CN3CCCCC3)cc2C1)C1CC1 [Example 60, 2-chloro-N-cyclopropyl-6-methyl-N-[2-[2-oxo-2-[2-(piperidin-1-yl-methyl)-4,5,6,7-tetrahydro-thieno[3,2-c]pyridin-5-yl]-ethoxy]-ethyl]-benzenesulfonic acid amide] |
| 7% | 60% | Cc1cc(S(=O)(=O)N2CCCCC2CCC(=O)N2CCc3sccc3C2c2ccccc2C)c(C)cc1Cl (centres unmarked) [Example 11, 3-(1-(4-chloro-2,5-dimethylphenylsulfonyl)piperidin-2-yl)-1-(4-o-tolyl-6,7-dihydrothieno[3,2-c]pyridin-5(4H)-yl)propan-1-one] |
